The values below come from article PMC8288134, “Synthesis, potential antitumor activity, cell cycle analysis, and multitarget mechanisms of novel hydrazones incorporating a 4-methylsulfonylbenzene scaffold: a molecular docking study” (Journal of Enzyme Inhibition and Medicinal Chemistry, 2021).

One data set deals with CCRF-CEM. In words: NCI antitumor screen (SRB). The settings on record: Homo sapiens; for inhibition at 10 µM: one dose 10 µM, read-out: Growth inhibition percentage (GI%). Type of data set: cell-based.
Another data set has as its system PRMI-8226. Nature of the data set: NCI antitumor screen (SRB). Type of data set: cell-based. The note with it: Homo sapiens; for inhibition at 10 µM: one dose 10 µM, read-out: Growth inhibition percentage (GI%).
For a further data set, the system named is A549/ATCC. Nature of the data set: NCI antitumor screen (SRB). It counts as cell-based. The settings on record: Homo sapiens; for inhibition at 10 µM: one dose 10 µM, read-out: Growth inhibition percentage (GI%).
The next data set concerns NCI-H460. Nature of the data set: NCI antitumor screen (SRB). It counts as cell-based. The note with it: Homo sapiens; for inhibition at 10 µM: one dose 10 µM, read-out: Growth inhibition percentage (GI%).
The test system of the next data set is NCI-H522. Nature of the data set: NCI antitumor screen (SRB). It counts as cell-based. The settings on record: Homo sapiens.
In a further data set the test system is HCC-2998. Nature of the data set: NCI antitumor screen (SRB). Type of data set: cell-based. The note with it: Homo sapiens; for inhibition at 10 µM: one dose 10 µM, read-out: Growth inhibition percentage (GI%).
A further data set concerns SF-539. Nature of the data set: NCI antitumor screen (SRB). It counts as cell-based. The settings on record: Homo sapiens; for inhibition at 10 µM: one dose 10 µM, read-out: Growth inhibition percentage (GI%).
A further data set concerns MDA-MB-435. Nature of the data set: NCI antitumor screen (SRB). Type of data set: cell-based. The note with it: Homo sapiens; for inhibition at 10 µM: one dose 10 µM, read-out: Growth inhibition percentage (GI%).
The test system of another data set is SK-OV-3. Nature of the data set: NCI antitumor screen (SRB). The settings on record: Homo sapiens; for inhibition at 10 µM: one dose 10 µM, read-out: Growth inhibition percentage (GI%). Type of data set: cell-based.
The next data set relates to ACHN. In words: NCI antitumor screen (SRB). The note with it: Homo sapiens; for inhibition at 10 µM: one dose 10 µM, read-out: Growth inhibition percentage (GI%). Type of data set: cell-based.
The next data set has as its system CAKI-1. Nature of the data set: NCI antitumor screen (SRB). It counts as cell-based. The note with it: Homo sapiens; for inhibition at 10 µM: one dose 10 µM, read-out: Growth inhibition percentage (GI%).
In the next data set the test system is RXF 393. Nature of the data set: NCI antitumor screen (SRB). It counts as cell-based. The note with it: Homo sapiens; for inhibition at 10 µM: one dose 10 µM, read-out: Growth inhibition percentage (GI%).
The next data set deals with UO-31. In words: NCI antitumor screen (SRB). It counts as cell-based, human. The note with it: for inhibition at 10 µM: read-out: Growth inhibition percentage (GI%).
The test system of the next data set is PC-3. In words: NCI antitumor screen (SRB). The note with it: Homo sapiens; for inhibition at 10 µM: one dose 10 µM, read-out: Growth inhibition percentage (GI%). Type of data set: cell-based.
The next data set has as its system MCF7. Nature of the data set: NCI antitumor screen (SRB). The note with it: Homo sapiens; for inhibition at 10 µM: one dose 10 µM, read-out: Growth inhibition percentage (GI%). It counts as cell-based.
The subject of the next data set is T-47D. In words: NCI antitumor screen (SRB). The settings on record: Homo sapiens, T47D; for inhibition at 10 µM: one dose 10 µM, read-out: Growth inhibition percentage (GI%). It counts as cell-based.
The test system of data set [1] is colon cancer tumour cell lines. The note with it: cited from earlier work.
For data set [2], the system named is CNS cancer tumour cell lines. The note with it: cited from earlier work.
For data set [3], the system named is prostate cancer tumour cell lines. The settings on record: cited from earlier work.
Data set [4] relates to breast cancer tumour cell lines. The note with it: cited from earlier work.
Data set [5] relates to full panel of 59 cancer cell lines. The note with it: cited from earlier work.
The mark [6] stands for this setting: NCI-H522, one dose 10 µM, read-out: Growth inhibition percentage (GI%).
[7] abbreviates: Homo sapiens, UO-31, one dose 10 µM.
Setting [8] is: read-out: GI50 (subpanel average), reference drugs, ref https://dtp.cancer.gov/dtpstandard/dwindex/index.jsp.
The mark [9] stands for this setting: read-out: LC50 (subpanel average), reference drugs, ref https://dtp.cancer.gov/dtpstandard/dwindex/index.jsp.
[10] abbreviates: reference drugs, ref https://dtp.cancer.gov/dtpstandard/dwindex/index.jsp.
[11] abbreviates: NCI-H522, read-out: Growth inhibition percentage (GI%).
[12] abbreviates: five concentrations 0.01-100 µM.

Read-outs that look alike come from different tables or passages of the source.

Take `O=c1[nH]cc(F)c(=O)[nH]1` [Compound 5-Fu, 5-fluorouracil, reference compound]: the inhibition at 10 µM in the data set on CCRF-CEM was 42.9%; in the data set on PRMI-8226, 58.6%; in the data set with A549/ATCC it was 65.8%; with NCI-H460, 87%; with NCI-H522 (setting [6]) it was 42%; in the data set on HCC-2998 it was greater than 100%. Besides, the inhibition at 10 µM in the data set on SF-539 is greater than 100%; in the data set on MDA-MB-435, 63.4%; with SK-OV-3 it was 22.5%; in the data set on ACHN, 60.7%; in the data set with CAKI-1 it was 60.6%; in the data set with RXF 393, 65.7%. Moreover, the inhibition at 10 µM in the data set with UO-31 (setting [7]) turned out to be 58.7%; in the data set with PC-3, 41.8%; with MCF7, 88.5%; in the data set on T-47D, 43.3%. Further, the GI50 was 270 nM in data set [1] (setting [8]); 14.4 µM in [2] (setting [8]); 1460 nM in data set [3] (setting [8]); 6.87 µM in data set [4] (setting [8]); 900 nM in data set [5] (read-out: GI50 MG-MID (full panel mean-graph midpoint), reference drugs, ref https://dtp.cancer.gov/dtpstandard/dwindex/index.jsp). Moreover, the CC50 was 89.3 µM in data set [1] (setting [9]); greater than 100 µM in data set [2] (setting [9]); greater than 100 µM in [3] (setting [9]); greater than 100 µM in data set [4] (setting [9]); 95.6 µM in data set [5] (read-out: LC50 MG-MID (full panel mean-graph midpoint), reference drugs, ref https://dtp.cancer.gov/dtpstandard/dwindex/index.jsp). In addition, the “TGI (subpanel average)” value is 51.41 µM in [1] (setting [10]), 73.70 µM in data set [2] (setting [10]), “c (Compounds showed values ≥ 100 µM)” in [3] (setting [10]) and 68.01 µM in data set [4] (setting [10]). In addition, the “TGI MG-MID (full panel mean-graph midpoint)” value in data set [5] (setting [10]) is recorded as 43.4 µM.

Turning to `CS(=O)(=O)c1ccc(C(=O)NN=Cc2cccc3ccccc23)cc1` [Compound 6, 4-(Methylsulfonyl)-N'-(naphthalen-1-ylmethylene)benzohydrazide], the inhibition at 10 µM in the data set with CCRF-CEM was found to be 22.4%; with PRMI-8226 it was 12.3%; in the data set on A549/ATCC it was 58.7%; with NCI-H460 it was 33.2%; with NCI-H522 (setting [11]) it was 95.5%; in the data set with HCC-2998 it was 15.5%. The inhibition at 10 µM in the data set on SF-539 is 10.7%; with MDA-MB-435, 82.9%; in the data set on SK-OV-3, 21.9%; in the data set on ACHN, less than 10%; in the data set on CAKI-1, 32.8%; in the data set on RXF 393, less than 10%. Besides, the inhibition at 10 µM came out at 21.5% in the data set on UO-31 (setting [7]), 21.2% with PC-3, 55.1% with MCF7 and 14.7% in the data set on T-47D.

With `Cc1ccc(C=NNC(=O)c2ccc(S(C)(=O)=O)cc2)cc1` [Compound 9, N'-(4-Methylbenzylidene)-4-(methylsulfonyl)benzohydrazide], the inhibition at 10 µM with CCRF-CEM was 20.8%; in the data set with PRMI-8226, less than 10%; with A549/ATCC, 12.7%; in the data set on NCI-H460 it was less than 10%; in the data set with NCI-H522 (setting [11]), 53.9%; in the data set with HCC-2998, less than 10%. Also, the inhibition at 10 µM with SF-539 was less than 10%; with MDA-MB-435, 47.5%; in the data set on SK-OV-3, less than 10%; in the data set on ACHN, less than 10%; in the data set on CAKI-1, 25%; with RXF 393, less than 10%. The inhibition at 10 µM is 12.3% with UO-31 (setting [7]), 26.9% in the data set on PC-3, 21.4% in the data set with MCF7 and less than 10% in the data set with T-47D.

Take `CS(=O)(=O)c1ccc(C(=O)N/N=C/c2ccccc2O)cc1` [Compound 16]: the inhibition at 10 µM in the data set on CCRF-CEM came out at 84.7%; in the data set on PRMI-8226 it was 51.3%; with A549/ATCC, 61.2%; with NCI-H460, 85.9%; in the data set on NCI-H522 (setting [11]), 84.9%; in the data set on HCC-2998, 52.7%. Besides, the inhibition at 10 µM in the data set with SF-539 amounted to 44.7%; with MDA-MB-435 it was 40.3%; in the data set on SK-OV-3 it was 60.1%; in the data set on ACHN it was 71.7%; in the data set with CAKI-1, 65.1%; in the data set with RXF 393 it was 47%. For the same compound, the inhibition at 10 µM is 82% in the data set with UO-31 (setting [7]), 45.7% in the data set with PC-3, 77.5% in the data set on MCF7 and 47.6% in the data set on T-47D.

Consider `CCN(CC)c1ccc(/C=N/NC(=O)c2ccc(S(C)(=O)=O)cc2)c(O)c1` [Compound 20], for which the GI50 with CCRF-CEM (setting [12]) was found to be 78 nM; in the data set on PRMI-8226 (setting [12]), 297 nM; with A549/ATCC (setting [12]), 402 nM; with NCI-H460 (setting [12]), 113 nM; with NCI-H522 (NCI-H522, five concentrations 0.01-100 µM), 395 nM; in the data set with HCC-2998 (setting [12]) it was 301 nM. Also, the GI50 with SF-539 (setting [12]) stood at 244 nM; in the data set with MDA-MB-435 (setting [12]) it was 623 nM; in the data set with SK-OV-3 (setting [12]), 251 nM; with ACHN (setting [12]) it was 117 nM; in the data set with CAKI-1 (setting [12]), 104 nM; in the data set with RXF 393 (setting [12]), 271 nM. Besides, the GI50 turned out to be 139 nM in the data set with UO-31 (Homo sapiens, UO-31, five concentrations 0.01-100 µM); 319 nM in the data set on PC-3 (setting [12]); 253 nM with MCF7 (setting [12]); 390 nM in the data set on T-47D (setting [12]). Besides, the inhibition at 10 µM was 93.1% in the data set with CCRF-CEM; 79% with PRMI-8226; 87.5% with A549/ATCC; 96.7% in the data set with NCI-H460; 90.1% with NCI-H522 (setting [6]); 60.4% in the data set with HCC-2998. The inhibition at 10 µM stood at 96% in the data set with SF-539; 62.8% in the data set on MDA-MB-435; 61% with SK-OV-3; 82.9% with ACHN; 79.6% in the data set with CAKI-1; 71.5% in the data set with RXF 393. In addition, the inhibition at 10 µM with UO-31 (Homo sapiens, UO-31, UO-31, one dose 10 µM) worked out at 100%; in the data set with PC-3 it was 50.8%; in the data set on MCF7 it was 91.2%; in the data set on T-47D it was 70%. The “Growth inhibition percentage (GI%)” value with UO-31 (UO-31, one dose 10 µM) was greater than 100%.
